From the NIST ThermoML archive (doi:10.1021/je700260f)
Numbers after ± are expanded uncertainties.

Settings: 323.15 K, Liquid, Vibrating tube method

FC(C(F)(F)F)C(F)(F)F [1,1,1,2,3,3,3-heptafluoropropane]
Settings | mass density [kg/m3]
9744 kPa | 1360.2 ± 1.5
9763 kPa | 1360.3 ± 1.5
9782 kPa | 1360.5 ± 1.5
9800 kPa | 1360.6 ± 1.5
9817 kPa | 1360.8 ± 1.5
9836 kPa | 1360.8 ± 1.5
9857 kPa | 1361.2 ± 1.5
9876 kPa | 1361.3 ± 1.5
9894 kPa | 1361.4 ± 1.5
10348 kPa | 1364.7 ± 1.5
10377 kPa | 1364.9 ± 1.5
10394 kPa | 1364.9 ± 1.5
10416 kPa | 1365.1 ± 1.5
10433 kPa | 1365.2 ± 1.5
10451 kPa | 1365.3 ± 1.5
10468 kPa | 1365.4 ± 1.5
10492 kPa | 1365.7 ± 1.5
10512 kPa | 1365.7 ± 1.5
10532 kPa | 1365.9 ± 1.5
10553 kPa | 1366 ± 1.5
10577 kPa | 1366.2 ± 1.5
10595 kPa | 1366.3 ± 1.5
10749 kPa | 1367.4 ± 1.5
10766 kPa | 1367.5 ± 1.5
10786 kPa | 1367.7 ± 1.5
10804 kPa | 1367.8 ± 1.5
10828 kPa | 1367.9 ± 1.5
10845 kPa | 1368.1 ± 1.5
10864 kPa | 1368.3 ± 1.5
10894 kPa | 1368.4 ± 1.5
11387 kPa | 1371.8 ± 1.5
11407 kPa | 1371.9 ± 1.5
11425 kPa | 1372 ± 1.5
11446 kPa | 1372.2 ± 1.5
11463 kPa | 1372.3 ± 1.5
11483 kPa | 1372.5 ± 1.5
11501 kPa | 1372.7 ± 1.5
11519 kPa | 1372.7 ± 1.5
11540 kPa | 1372.9 ± 1.5
12697 kPa | 1380.5 ± 1.5
12717 kPa | 1380.6 ± 1.5
12774 kPa | 1380.8 ± 1.5
12791 kPa | 1381 ± 1.5
12809 kPa | 1381.2 ± 1.5
12835 kPa | 1381.4 ± 1.5
12849 kPa | 1381.5 ± 1.5
12876 kPa | 1381.6 ± 1.5
12893 kPa | 1381.6 ± 1.5
12913 kPa | 1381.8 ± 1.5
12933 kPa | 1382 ± 1.5
12950 kPa | 1382.2 ± 1.5
12971 kPa | 1382.2 ± 1.5
12984 kPa | 1382.4 ± 1.5
13009 kPa | 1382.4 ± 1.5
13183 kPa | 1383.5 ± 1.5
13201 kPa | 1383.6 ± 1.5
13222 kPa | 1383.8 ± 1.5
13245 kPa | 1383.9 ± 1.5
13732 kPa | 1386.8 ± 1.5
13757 kPa | 1387.1 ± 1.5
13777 kPa | 1387.2 ± 1.5
13803 kPa | 1387.2 ± 1.5
13826 kPa | 1387.4 ± 1.5
13851 kPa | 1387.5 ± 1.5
13891 kPa | 1387.8 ± 1.5
13911 kPa | 1387.9 ± 1.5
13940 kPa | 1388.1 ± 1.5
13964 kPa | 1388.4 ± 1.5
13981 kPa | 1388.6 ± 1.5
14001 kPa | 1388.5 ± 1.5
14024 kPa | 1388.6 ± 1.5
14045 kPa | 1388.8 ± 1.5
14066 kPa | 1388.9 ± 1.5
14089 kPa | 1389.2 ± 1.5
14106 kPa | 1389.2 ± 1.5
14126 kPa | 1389.3 ± 1.5
14223 kPa | 1390 ± 1.5
14245 kPa | 1390 ± 1.5
14268 kPa | 1390.2 ± 1.5
14290 kPa | 1390.1 ± 1.5
14307 kPa | 1390.4 ± 1.5
14331 kPa | 1390.5 ± 1.5
14346 kPa | 1390.7 ± 1.6
14525 kPa | 1391.7 ± 1.6
14547 kPa | 1392 ± 1.6
14564 kPa | 1392 ± 1.6
14584 kPa | 1392 ± 1.6
14606 kPa | 1392.1 ± 1.6
14624 kPa | 1392.3 ± 1.6
14649 kPa | 1392.4 ± 1.6
14665 kPa | 1392.5 ± 1.6
14689 kPa | 1392.6 ± 1.6
14710 kPa | 1392.9 ± 1.6
15240 kPa | 1396 ± 1.6
15711 kPa | 1398.5 ± 1.6
15733 kPa | 1398.8 ± 1.6
15763 kPa | 1398.9 ± 1.6
15783 kPa | 1399.1 ± 1.6
15811 kPa | 1399.3 ± 1.6
15834 kPa | 1399.3 ± 1.6
15857 kPa | 1399.5 ± 1.6
15884 kPa | 1399.6 ± 1.6
15907 kPa | 1399.8 ± 1.6
15931 kPa | 1400 ± 1.6
15952 kPa | 1399.9 ± 1.6
15979 kPa | 1400.1 ± 1.6
15995 kPa | 1400.2 ± 1.6
16018 kPa | 1400.3 ± 1.6
16047 kPa | 1400.5 ± 1.6
16072 kPa | 1400.6 ± 1.6
16209 kPa | 1401.3 ± 1.6
16238 kPa | 1401.5 ± 1.6
16257 kPa | 1401.7 ± 1.6
16276 kPa | 1401.7 ± 1.6
16300 kPa | 1401.9 ± 1.6
16318 kPa | 1402 ± 1.6
16339 kPa | 1402.1 ± 1.6
16364 kPa | 1402.3 ± 1.6
16385 kPa | 1402.4 ± 1.6
16407 kPa | 1402.6 ± 1.6
16429 kPa | 1402.6 ± 1.6
16451 kPa | 1402.8 ± 1.6
16474 kPa | 1402.8 ± 1.6
16502 kPa | 1403 ± 1.6
16520 kPa | 1403.2 ± 1.6
16544 kPa | 1403.3 ± 1.6
16566 kPa | 1403.2 ± 1.6
16584 kPa | 1403.6 ± 1.6
16603 kPa | 1403.7 ± 1.6
16629 kPa | 1403.6 ± 1.6
16649 kPa | 1403.9 ± 1.6
16677 kPa | 1404.1 ± 1.6
16763 kPa | 1404.5 ± 1.6
16808 kPa | 1404.8 ± 1.6
16827 kPa | 1404.9 ± 1.6
16854 kPa | 1405.1 ± 1.6
16872 kPa | 1405 ± 1.6
16898 kPa | 1405.2 ± 1.6
16920 kPa | 1405.3 ± 1.6
16947 kPa | 1405.5 ± 1.6
16978 kPa | 1405.6 ± 1.6
16998 kPa | 1405.8 ± 1.6
17027 kPa | 1406 ± 1.6
17050 kPa | 1406 ± 1.6
17073 kPa | 1406.2 ± 1.6
17097 kPa | 1406.2 ± 1.6
17120 kPa | 1406.4 ± 1.6
17141 kPa | 1406.4 ± 1.6
17170 kPa | 1406.7 ± 1.6
17197 kPa | 1406.8 ± 1.6
17220 kPa | 1406.9 ± 1.6
17330 kPa | 1407.5 ± 1.6
17378 kPa | 1407.6 ± 1.6
17898 kPa | 1410.5 ± 1.6
17952 kPa | 1410.9 ± 1.6
17976 kPa | 1411.1 ± 1.6
17998 kPa | 1411.2 ± 1.6
18024 kPa | 1411.4 ± 1.6
18049 kPa | 1411.4 ± 1.6
18081 kPa | 1411.6 ± 1.6
18105 kPa | 1411.8 ± 1.6
18129 kPa | 1411.7 ± 1.6
18160 kPa | 1412 ± 1.6
18184 kPa | 1412.1 ± 1.6
18240 kPa | 1412.4 ± 1.6
18317 kPa | 1412.9 ± 1.6
18547 kPa | 1414 ± 1.6
18567 kPa | 1414.1 ± 1.6
18596 kPa | 1414.3 ± 1.6
18614 kPa | 1414.3 ± 1.6
18862 kPa | 1415.5 ± 1.6
18885 kPa | 1415.8 ± 1.6
18905 kPa | 1415.8 ± 1.6
18929 kPa | 1416 ± 1.6
18952 kPa | 1416.1 ± 1.6
18981 kPa | 1416.2 ± 1.6
19007 kPa | 1416.4 ± 1.6
19162 kPa | 1417 ± 1.6
19197 kPa | 1417.4 ± 1.6
20153 kPa | 1422 ± 1.6
20175 kPa | 1422.2 ± 1.6
20203 kPa | 1422.2 ± 1.6
20225 kPa | 1422.4 ± 1.6
20251 kPa | 1422.6 ± 1.6
20283 kPa | 1422.7 ± 1.6
20313 kPa | 1422.8 ± 1.6
20340 kPa | 1422.8 ± 1.6
20370 kPa | 1423.2 ± 1.6
20404 kPa | 1423.3 ± 1.6
20429 kPa | 1423.4 ± 1.6
20481 kPa | 1423.6 ± 1.6
21768 kPa | 1429.8 ± 1.6
21806 kPa | 1430 ± 1.6
21829 kPa | 1430.1 ± 1.6
21855 kPa | 1430 ± 1.6
21886 kPa | 1430.3 ± 1.6
21913 kPa | 1430.5 ± 1.6
21936 kPa | 1430.6 ± 1.6
21971 kPa | 1430.7 ± 1.6
22991 kPa | 1435.4 ± 1.6
23635 kPa | 1438.4 ± 1.6
23664 kPa | 1438.4 ± 1.6
23690 kPa | 1438.6 ± 1.6
23714 kPa | 1438.6 ± 1.6
23750 kPa | 1438.7 ± 1.6
